Consider eight compounds from patent US20250368649A1, “TETRAHYDROPYRIDOPYRIMIDINE PAN-KRAS INHIBITORS” (Mirati Therapeutics, Inc., priority 2022, published 2025).

One assay addresses KRas WT (Homo sapiens, UniProt P01116). The experiment in a line: KRas binding assay (TR-FRET displacement), KRas WT. To be noted: TR-FRET displacement. (In TR-FRET formats the signal depends on donor and acceptor labels being close together.)
Another assay addresses KRas G12A (Homo sapiens, UniProt P01116, G12A). It counts as binding. To be noted: TR-FRET displacement, read-out: Binding to KRas (IC50 nM) G12A.
A further assay addresses KRas G12C (Homo sapiens, UniProt P01116, G12C). It counts as binding. The following applies: TR-FRET displacement, read-out: Binding to KRas (IC50 nM) G12C.
The target of the next assay is KRas G12S (Homo sapiens, UniProt P01116, G12S). Format: binding. To be noted: TR-FRET displacement, read-out: Binding to KRas (IC50 nM) G12S.
Sequence of KRas G12S (P01116 1-169 isoform P01116-2 G12S): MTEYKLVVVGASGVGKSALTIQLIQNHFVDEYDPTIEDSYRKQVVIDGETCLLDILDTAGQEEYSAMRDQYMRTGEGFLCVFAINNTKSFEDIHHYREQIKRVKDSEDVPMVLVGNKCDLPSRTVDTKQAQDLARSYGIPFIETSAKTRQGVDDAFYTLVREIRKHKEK
In a further assay the target is KRas G13D (Homo sapiens, UniProt P01116, G13D). It counts as binding. To be noted: TR-FRET displacement, read-out: Binding to KRas (IC50 nM) G13D.
Sequence of KRas G13D (P01116 1-169 isoform P01116-2 G13D): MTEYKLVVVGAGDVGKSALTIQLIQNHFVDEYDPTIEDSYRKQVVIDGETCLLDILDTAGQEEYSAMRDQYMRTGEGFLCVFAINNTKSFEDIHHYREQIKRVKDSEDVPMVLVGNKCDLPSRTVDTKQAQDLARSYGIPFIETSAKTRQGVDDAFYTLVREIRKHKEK
For the next assay, the target named is KRas Q61H (Homo sapiens, UniProt P01116, Q61H). The assay is described as follows: KRas binding assay (TR-FRET displacement), KRas Q61H. The following applies: TR-FRET displacement.
Sequence of KRas Q61H (P01116 1-169 isoform P01116-2 Q61H): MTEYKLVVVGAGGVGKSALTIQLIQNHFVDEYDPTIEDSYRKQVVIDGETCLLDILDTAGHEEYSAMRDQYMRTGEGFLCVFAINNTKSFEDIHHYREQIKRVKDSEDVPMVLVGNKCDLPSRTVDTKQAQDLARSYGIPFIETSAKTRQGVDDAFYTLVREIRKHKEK
The test system of another assay is ASPC1 cells. The assay is described as follows: Inhibition of KRas-mediated phosphorylation of ERK (Cisbio HTRF pERK), ASPC1 cells. Format: cell-based. The following applies: Homo sapiens, AsPC-1 cells; for IC50: ASPC1, 3 h, 3 hr compound incubation, Cisbio pERK HTRF; for inhibition at 0.1 µM: ASPC1, single point at 100 nM, 3 hrs compound incubation.
Another assay deals with H727 cells. The experiment in a line: Inhibition of KRas-mediated phosphorylation of ERK (Cisbio HTRF pERK), H727 cells. It counts as cell-based. The following applies: Homo sapiens; for IC50: NCI-H727, 3 h, 3 hr compound incubation, Cisbio pERK HTRF; for inhibition at 0.1 µM: NCI-H727, single point at 100 nM, 3 hrs compound incubation.
In a further assay the test system is A549 cells. The experiment in a line: Inhibition of KRas-mediated phosphorylation of ERK (Cisbio HTRF pERK), A549 cells. The following applies: Homo sapiens, single point at 100 nM, 3 hrs compound incubation. It counts as cell-based.
A further assay deals with H358 cells. The experiment in a line: Inhibition of KRas-mediated phosphorylation of ERK (Cisbio HTRF pERK), H358 cells. It counts as cell-based. To be noted: Homo sapiens, NCI-H358, single point at 100 nM, 3 hrs compound incubation.
In the next assay the target is KRas G12D (Homo sapiens, UniProt P01116, G12D). The assay is described as follows: biochemical. To be noted: Binding to KRas (IC50 nM) G12D, TR-FRET displacement, KRas G12D.
Sequence of KRas G12D (P01116 1-169 isoform P01116-2 G12D): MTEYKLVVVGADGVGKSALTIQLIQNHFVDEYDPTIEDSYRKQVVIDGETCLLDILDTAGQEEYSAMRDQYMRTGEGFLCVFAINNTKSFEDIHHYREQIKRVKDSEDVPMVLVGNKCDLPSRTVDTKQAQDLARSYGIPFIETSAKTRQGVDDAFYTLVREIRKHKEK
In the next assay the target is KRas G12R (Homo sapiens, UniProt P01116, G12R). The experiment in a line: biochemical. The following applies: Binding to KRas (IC50 nM) G12R, TR-FRET displacement, KRas G12R.
Sequence of KRas G12R (P01116 1-169 isoform P01116-2 G12R): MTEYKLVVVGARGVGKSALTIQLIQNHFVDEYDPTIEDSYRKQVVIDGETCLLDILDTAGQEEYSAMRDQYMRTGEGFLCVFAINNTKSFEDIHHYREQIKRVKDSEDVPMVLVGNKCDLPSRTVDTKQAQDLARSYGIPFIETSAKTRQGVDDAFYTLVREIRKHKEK
Another assay concerns the target KRas G12V (Homo sapiens, UniProt P01116, G12V). The experiment in a line: biochemical. To be noted: Binding to KRas (IC50 nM) G12V, TR-FRET displacement, KRas G12V.
Another assay has as its system H460 cells. The assay is described as follows: Inhibition of KRas-mediated phosphorylation of ERK (Cisbio HTRF pERK), H460 cells. It counts as cell-based. To be noted: Homo sapiens, NCI-H460, single point at 100 nM, 3 hrs compound incubation.
The next assay concerns HCT116 cells. The assay is described as follows: Inhibition of KRas-mediated phosphorylation of ERK (Cisbio HTRF pERK), HCT116 cells. It counts as cell-based. To be noted: Homo sapiens, HCT-116, single point at 100 nM, 3 hrs compound incubation.

Structures are written as SMILES.

Sequence of KRas WT (P01116 1-169 isoform P01116-2): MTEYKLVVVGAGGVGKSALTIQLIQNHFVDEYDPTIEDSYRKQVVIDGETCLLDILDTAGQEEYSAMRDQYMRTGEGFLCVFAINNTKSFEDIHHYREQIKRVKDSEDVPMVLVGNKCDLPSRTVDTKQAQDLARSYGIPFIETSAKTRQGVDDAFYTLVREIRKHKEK
Sequence of KRas G12V (P01116 1-169 isoform P01116-2 G12V): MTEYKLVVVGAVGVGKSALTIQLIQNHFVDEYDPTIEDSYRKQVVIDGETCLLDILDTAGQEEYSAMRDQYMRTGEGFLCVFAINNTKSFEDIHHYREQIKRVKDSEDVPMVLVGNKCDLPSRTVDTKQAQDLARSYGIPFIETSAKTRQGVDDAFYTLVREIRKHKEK
Sequence of KRas G12C (P01116 1-169 isoform P01116-2 G12C): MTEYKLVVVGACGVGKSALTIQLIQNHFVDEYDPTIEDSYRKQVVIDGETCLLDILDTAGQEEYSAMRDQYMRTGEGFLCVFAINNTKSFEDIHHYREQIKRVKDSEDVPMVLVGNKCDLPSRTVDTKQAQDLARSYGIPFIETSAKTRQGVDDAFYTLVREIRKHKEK
Sequence of KRas G12A (P01116 1-169 isoform P01116-2 G12A): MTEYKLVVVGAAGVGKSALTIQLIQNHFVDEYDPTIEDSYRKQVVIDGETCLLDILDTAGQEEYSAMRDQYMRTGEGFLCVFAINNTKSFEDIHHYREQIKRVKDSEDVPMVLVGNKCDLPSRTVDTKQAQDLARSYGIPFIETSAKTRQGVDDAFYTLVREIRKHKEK

A word on the IC50: it is the concentration that inhibits the measured activity by half. The inhibition is the relative decrease from the control value, in per cent. As for `CN(C)C(=O)c1cc2n(n1)CCCN(c1nc(OCC34CCCN3CCC4)nc3c1CCN(c1cc(O)cc(Cl)c1C1CC1)C3)C2` [Example 437, 5-(7-(3-chloro-2-cyclopropyl-5-hydroxyphenyl)-2-((tetrahydro-1H-pyrrolizin-7a(5H)-yl)methoxy)-5,6,7,8-tetrahydropyrido[3,4-d]pyrimidin-4-yl)-N,N-dimethyl-5,6,7,8-tetrahydro-4H-pyrazolo[1,5-a][1,4]diazepine-2-carboxamide], the 50% inhibitory concentration (IC50) worked out at 8 nM on KRas WT; 7 nM on KRas G12A; 4 nM at KRas G12C; 4 nM on KRas G12S; 14 nM on KRas G13D; 12 nM at KRas Q61H. Also, the IC50 is 5200 nM with ASPC1 cells; 4480 nM with H727 cells; less than 2 nM at KRas G12D; 5 nM at KRas G12R; less than 2 nM at KRas G12V. Also, the inhibition at 0.1 µM was 2% in the assay with ASPC1 cells, -2% in the assay with H727 cells, -10% in the assay on A549 cells and -16% in the assay on H358 cells.
For the compound `Oc1cc(Cl)c(C2CC2)c(N2CCc3c(nc(OCC45CCCN4CCC5)nc3N3CCC[C@]4(C3)C[C@H](O)C4)C2)c1` [Example 440, (2s,4r)-6-(7-(3-chloro-2-cyclopropyl-5-hydroxyphenyl)-2-((tetrahydro-1H-pyrrolizin-7a(5H)-yl)methoxy)-5,6,7,8-tetrahydropyrido[3,4-d]pyrimidin-4-yl)-6-azaspiro[3.5]nonan-2-ol], the IC50 stood at 46 nM at KRas WT; 46 nM on KRas G12A; 30 nM at KRas G12C; 41 nM on KRas G12S; 73 nM on KRas G13D; 63 nM on KRas Q61H. Also, the half-inhibitory concentration (IC50) in the assay with ASPC1 cells was more than 10000 nM; with H727 cells it was 6510 nM; on KRas G12D it was 44 nM; at KRas G12R it was 36 nM; on KRas G12V, 13 nM. In addition, the inhibition at 0.1 µM is -10% with ASPC1 cells, -10% in the assay with H727 cells, -6% with A549 cells and -1% with H358 cells.
On to `Oc1cc(Cl)c(C2CC2)c(N2CCc3c(nc(OCC45CCCN4CCC5)nc3N3CCC[C@]4(C3)C[C@@H](O)C4)C2)c1` [Example 441, (2r,4s)-6-(7-(3-chloro-2-cyclopropyl-5-hydroxyphenyl)-2-((tetrahydro-1H-pyrrolizin-7a(5H)-yl)methoxy)-5,6,7,8-tetrahydropyrido[3,4-d]pyrimidin-4-yl)-6-azaspiro[3.5]nonan-2-ol], for which the IC50 on KRas WT turned out to be 19 nM; at KRas G12A it was 19 nM; at KRas G12C, 11 nM; on KRas G12S, 15 nM; on KRas G13D it was 27 nM; on KRas Q61H, 21 nM. Moreover, the IC50 in the assay on ASPC1 cells was more than 10000 nM; in the assay on H727 cells, 5710 nM; on KRas G12D it was 24 nM; at KRas G12R, 14 nM; at KRas G12V, 8 nM. Moreover, the inhibition at 0.1 µM was 9% with ASPC1 cells, -17% in the assay with H727 cells, -33% in the assay on A549 cells and 11% in the assay with H358 cells.
Consider `Cc1cc2[nH]ncc2c(N2CCc3c(nc(OCC45CCCN4CCC5)nc3N3CCCC4(C3)NC(=O)NC4=O)C2)c1C` (stereo not drawn) [Example 459, 7-(7-(5,6-dimethyl-1H-indazol-4-yl)-2-((hexahydro-1H-pyrrolizin-7a-yl)methoxy)-5,6,7,8-tetrahydropyrido[3,4-d]pyrimidin-4-yl)-1,3,7-triazaspiro[4.5]decane-2,4-dione], for which the IC50 at KRas WT worked out at 10 nM; at KRas G12A, 11 nM; at KRas G12C, 8 nM; on KRas G12S, 11 nM; on KRas G13D, 9 nM; at KRas Q61H, 8 nM. The IC50 is more than 10000 nM in the assay on ASPC1 cells; more than 10000 nM in the assay with H727 cells; 16 nM at KRas G12D; 11 nM at KRas G12R; 8 nM at KRas G12V.
For `Cc1cc2[nH]ncc2c(N2CCc3c(nc(OCC45CCCN4CCC5)nc3N3CCOCC(C)(O)C3)C2)c1C` (stereo not drawn) [Example 460, 4-(7-(5,6-dimethyl-1H-indazol-4-yl)-2-((hexahydro-1H-pyrrolizin-7a-yl)methoxy)-5,6,7,8-tetrahydropyrido[3,4-d]pyrimidin-4-yl)-6-methyl-1,4-oxazepan-6-ol], the IC50 at KRas WT came to 137 nM; at KRas G12A, 142 nM; at KRas G12C, 146 nM; on KRas G12S, 173 nM; on KRas G13D, 169 nM; at KRas Q61H, 188 nM. Moreover, the IC50 was 1620 nM in the assay with ASPC1 cells; 5360 nM with H727 cells; 67 nM at KRas G12D; 216 nM on KRas G12R; 108 nM on KRas G12V.
With `Cc1cc2[nH]ncc2c(N2CCc3c(nc(OCC45CCCN4CCC5)nc3N3CCCC4(CNC(=O)N4)C3)C2)c1C` (stereo not drawn) [Example 461, 7-(7-(5,6-dimethyl-1H-indazol-4-yl)-2-((hexahydro-1H-pyrrolizin-7a-yl)methoxy)-5,6,7,8-tetrahydropyrido[3,4-d]pyrimidin-4-yl)-1,3,7-triazaspiro[4.5]decan-2-one], the IC50 on KRas WT stood at 23 nM; on KRas G12A, 22 nM; at KRas G12C, 19 nM; on KRas G12S it was 23 nM; at KRas G13D, 26 nM; on KRas Q61H, 26 nM. For the same compound, the IC50 with ASPC1 cells is more than 10000 nM; in the assay with H727 cells, more than 10000 nM; at KRas G12D, 11 nM; on KRas G12R, 22 nM; at KRas G12V, 12 nM.
As to `O=C1NC(=O)[C@]2(CCCN(c3nc(OCC45CCCN4CCC5)nc4c3CCN(c3c(C5CC5)c(Cl)cc5[nH]ncc35)C4)C2)N1` [Example 471, (R)-7-(7-(6-chloro-5-cyclopropyl-1H-indazol-4-yl)-2-((hexahydro-1H-pyrrolizin-7a-yl)methoxy)-5,6,7,8-tetrahydropyrido[3,4-d]pyrimidin-4-yl)-1,3,7-triazaspiro[4.5]decane-2,4-dione], the IC50 on KRas WT, at KRas G12A, at KRas G12C, at KRas G12S, at KRas G13D and on KRas Q61H was less than 2 nM each time. Also, the IC50 in the assay on ASPC1 cells is 5320 nM; in the assay with H727 cells, 2880 nM; on KRas G12D it was less than 2 nM; at KRas G12R it was less than 2 nM; on KRas G12V, less than 2 nM. Besides, the inhibition at 0.1 µM in the assay with H460 cells and with HCT116 cells was -3% each time.
Turning to `CN1CCC[C@H]1COc1nc2c(c(N3CCCC4(CC(O)C4)C3)n1)CCN(c1cccc3cccc(Cl)c13)C2` (stereo partly drawn) [Example 484, (S)-6-(7-(8-chloronaphthalen-1-yl)-2-((1-methylpyrrolidin-2-yl)methoxy)-5,6,7,8-tetrahydropyrido[3,4-d]pyrimidin-4-yl)-6-azaspiro[3.5]nonan-2-ol], the IC50 on KRas WT is 2960 nM; at KRas G12A it was 2540 nM; at KRas G12C, 1540 nM; at KRas G12S, 2550 nM; on KRas G13D, 4430 nM; on KRas Q61H, 3610 nM. Moreover, the IC50 in the assay on ASPC1 cells is more than 10000 nM; in the assay with H727 cells, more than 10000 nM; at KRas G12D it was 3120 nM; at KRas G12R, 1810 nM; at KRas G12V it was 1180 nM.
